From the supplement of paper PMC11208160

Experiment: recombinant barcode read abundance after kanamycin selection (control-corrected) (log10(CPM+1)); higher = more efficient recombination; sequences stand for … in AGTGCAGAGAAAATCGGCCAGTTTTCTCTGCCTGCAGTCCGCATGCCGT…ATTTATGCAGCGGACTGCCTTTCTCCCAAAGTGATAAACCGGACAGTATCATGGACCGGTTTTCCCGGTAATCCGTATTTGCAAGGTTGGTTTCACT; site = the 11-nt target
Procedure, shortened: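 Duplicate cultures were plated either on chloramphenicol/ampicillin LB agar, serving as control, or on chloramphenicol/ampicillin/kanamycin with 0.1 mM IPTG. These came from a pooled E. coli library co-electroporated with a donor plasmid, each member pairing a target with an IS621 bridge RNA target-binding loop. Recombination efficiency equals averaged, control-corrected counts per million of recombinant-junction barcodes. It is listed as log10(CPM+1).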
For “ATGTCCCTATGGGTTCTAACCTGTTGCTCAG [ATGTCCCCTGA_LTGcore_TA_RTGcore_CT] (site ATGTCCCCTGA) (LTG core: TA, RTG core: CT)”, the “recombinant barcode read abundance (log10)” value was 0.0463. For “ATGTCCCTATGGGTTCTAACCTGTTGCTCTA [ATGTCCCCTGA_LTGcore_TA_RTGcore_TA] (site ATGTCCCCTGA) (LTG core: TA, RTG core: TA)”, the “recombinant barcode read abundance (log10)” value was 0.208. In the case of “ATGTCCCTTTGGGTTCTAACCTGTTGCTCAA [ATGTCCCCTGA_LTGcore_TT_RTGcore_TT] (site ATGTCCCCTGA) (LTG core: TT, RTG core: TT)”, the “recombinant barcode read abundance (log10)” value is reported as 0.0472. For “CATATTAAGTGGGTTCTAACCTGTTGCCTCT [CATATTACTAG_LTGcore_AG_RTGcore_AG] (site CATATTACTAG) (LTG core: AG, RTG core: AG)”, the “recombinant barcode read abundance (log10)” value was 0.0293. With “CATATTAATTGGGTTCTAACCTGTTGCCTAG [CATATTACTAG_LTGcore_AT_RTGcore_CT] (site CATATTACTAG) (LTG core: AT, RTG core: CT)” the “recombinant barcode read abundance (log10)” value was 0.195. For “CATATTACATGGGTTCTAACCTGTTGCCTAG [CATATTACTAG_LTGcore_CA_RTGcore_CT] (site CATATTACTAG) (LTG core: CA, RTG core: CT)”, the “recombinant barcode read abundance (log10)” value was 0.126. In the case of “CATATTACTTGGGTTCTAACCTGTTGCCTAC [CATATTACTAG_LTGcore_CT_RTGcore_GT] (site CATATTACTAG) (LTG core: CT, RTG core: GT)”, the “recombinant barcode read abundance (log10)” value is reported as 1.01. In the case of “CATATTAGATGGGTTCTAACCTGTTGCCTTC [CATATTACTAG_LTGcore_GA_RTGcore_GA] (site CATATTACTAG) (LTG core: GA, RTG core: GA)”, the “recombinant barcode read abundance (log10)” value is reported as 0.0675. In the case of “CATATTAGCTGGGTTCTAACCTGTTGCCTAG [CATATTACTAG_LTGcore_GC_RTGcore_CT] (site CATATTACTAG) (LTG core: GC, RTG core: CT)”, the “recombinant barcode read abundance (log10)” value is reported as 0.73. For “CATATTAGGTGGGTTCTAACCTGTTGCCTAG [CATATTACTAG_LTGcore_GG_RTGcore_CT] (site CATATTACTAG) (LTG core: GG, RTG core: CT)”, the “recombinant barcode read abundance (log10)” value was 0.182. In the case of “CATATTATATGGGTTCTAACCTGTTGCCTTA [CATATTACTAG_LTGcore_TA_RTGcore_TA] (site CATATTACTAG) (LTG core: TA, RTG core: TA)”, the “recombinant barcode read abundance (log10)” value is reported as 0.00689. In the case of “CGAGCCCACTGGGTTCTAACCTGTTGCTGGT [CGAGCCCCTCA_LTGcore_AC_RTGcore_AC] (site CGAGCCCCTCA) (LTG core: AC, RTG core: AC)”, the “recombinant barcode read abundance (log10)” value is reported as 0.0238. In the case of “CGAGCCCCGTGGGTTCTAACCTGTTGCTGAG [CGAGCCCCTCA_LTGcore_CG_RTGcore_CT] (site CGAGCCCCTCA) (LTG core: CG, RTG core: CT)”, the “recombinant barcode read abundance (log10)” value is reported as 0.587. In the case of “CGAGCCCCTTGGGTTCTAACCTGTTGCTGAC [CGAGCCCCTCA_LTGcore_CT_RTGcore_GT] (site CGAGCCCCTCA) (LTG core: CT, RTG core: GT)”, the “recombinant barcode read abundance (log10)” value is reported as 0.19. In the case of “CGAGCCCCTTGGGTTCTAACCTGTTGCTGCA [CGAGCCCCTCA_LTGcore_CT_RTGcore_TG] (site CGAGCCCCTCA) (LTG core: CT, RTG core: TG)”, the “recombinant barcode read abundance (log10)” value is reported as 0.0283. In the case of “CGAGCCCCTTGGGTTCTAACCTGTTGCTGGC [CGAGCCCCTCA_LTGcore_CT_RTGcore_GC] (site CGAGCCCCTCA) (LTG core: CT, RTG core: GC)”, the “recombinant barcode read abundance (log10)” value is reported as 0.405. For “CGAGCCCGCTGGGTTCTAACCTGTTGCTGAG [CGAGCCCCTCA_LTGcore_GC_RTGcore_CT] (site CGAGCCCCTCA) (LTG core: GC, RTG core: CT)”, the “recombinant barcode read abundance (log10)” value was 0.195. With “CGAGCCCGCTGGGTTCTAACCTGTTGCTGGC [CGAGCCCCTCA_LTGcore_GC_RTGcore_GC] (site CGAGCCCCTCA) (LTG core: GC, RTG core: GC)” the “recombinant barcode read abundance (log10)” value was 0.0793. With “CGAGCCCGTTGGGTTCTAACCTGTTGCTGAG [CGAGCCCCTCA_LTGcore_GT_RTGcore_CT] (site CGAGCCCCTCA) (LTG core: GT, RTG core: CT)” the “recombinant barcode read abundance (log10)” value was 0.102. For “CGCGCCCAATGGGTTCTAACCTGTTGCGGTT [CGCGCCCCTCC_LTGcore_AA_RTGcore_AA] (site CGCGCCCCTCC) (LTG core: AA, RTG core: AA)”, the “recombinant barcode read abundance (log10)” value was 0.134. For “CGCGCCCACTGGGTTCTAACCTGTTGCGGAG [CGCGCCCCTCC_LTGcore_AC_RTGcore_CT] (site CGCGCCCCTCC) (LTG core: AC, RTG core: CT)”, the “recombinant barcode read abundance (log10)” value was 0.0345. In the case of “CGCGCCCACTGGGTTCTAACCTGTTGCGGGT [CGCGCCCCTCC_LTGcore_AC_RTGcore_AC] (site CGCGCCCCTCC) (LTG core: AC, RTG core: AC)”, the “recombinant barcode read abundance (log10)” value is reported as 0.0786. With “CGCGCCCCCTGGGTTCTAACCTGTTGCGGAG [CGCGCCCCTCC_LTGcore_CC_RTGcore_CT] (site CGCGCCCCTCC) (LTG core: CC, RTG core: CT)” the “recombinant barcode read abundance (log10)” value was 0.158. With “CGCGCCCCTTGGGTTCTAACCTGTTGCGGAC [CGCGCCCCTCC_LTGcore_CT_RTGcore_GT] (site CGCGCCCCTCC) (LTG core: CT, RTG core: GT)” the “recombinant barcode read abundance (log10)” value was 0.0615. In the case of “CGCGCCCCTTGGGTTCTAACCTGTTGCGGAT [CGCGCCCCTCC_LTGcore_CT_RTGcore_AT] (site CGCGCCCCTCC) (LTG core: CT, RTG core: AT)”, the “recombinant barcode read abundance (log10)” value is reported as 0.243. In the case of “CGCGCCCCTTGGGTTCTAACCTGTTGCGGCG [CGCGCCCCTCC_LTGcore_CT_RTGcore_CG] (site CGCGCCCCTCC) (LTG core: CT, RTG core: CG)”, the “recombinant barcode read abundance (log10)” value is reported as 0.0742. With “CGCGCCCCTTGGGTTCTAACCTGTTGCGGGT [CGCGCCCCTCC_LTGcore_CT_RTGcore_AC] (site CGCGCCCCTCC) (LTG core: CT, RTG core: AC)” the “recombinant barcode read abundance (log10)” value was 0.266. For “CGCGCCCCTTGGGTTCTAACCTGTTGCGGTT [CGCGCCCCTCC_LTGcore_CT_RTGcore_AA] (site CGCGCCCCTCC) (LTG core: CT, RTG core: AA)”, the “recombinant barcode read abundance (log10)” value was 0.146. For “CGCGCCCGATGGGTTCTAACCTGTTGCGGAG [CGCGCCCCTCC_LTGcore_GA_RTGcore_CT] (site CGCGCCCCTCC) (LTG core: GA, RTG core: CT)”, the “recombinant barcode read abundance (log10)” value was 0.217. With “CGCGCCCGCTGGGTTCTAACCTGTTGCGGGC [CGCGCCCCTCC_LTGcore_GC_RTGcore_GC] (site CGCGCCCCTCC) (LTG core: GC, RTG core: GC)” the “recombinant barcode read abundance (log10)” value was 0.552. For “CGCGCCCGTTGGGTTCTAACCTGTTGCGGAG [CGCGCCCCTCC_LTGcore_GT_RTGcore_CT] (site CGCGCCCCTCC) (LTG core: GT, RTG core: CT)”, the “recombinant barcode read abundance (log10)” value was 0.062. In the case of “CGGTCCCCATGGGTTCTAACCTGTTGCCATG [CGGTCCCCTTG_LTGcore_CA_RTGcore_CA] (site CGGTCCCCTTG) (LTG core: CA, RTG core: CA)”, the “recombinant barcode read abundance (log10)” value is reported as 0.185. In the case of “CGGTCCCCGTGGGTTCTAACCTGTTGCCACG [CGGTCCCCTTG_LTGcore_CG_RTGcore_CG] (site CGGTCCCCTTG) (LTG core: CG, RTG core: CG)”, the “recombinant barcode read abundance (log10)” value is reported as 0.342. With “CGGTCCCCTTGGGTTCTAACCTGTTGCCAAA [CGGTCCCCTTG_LTGcore_CT_RTGcore_TT] (site CGGTCCCCTTG) (LTG core: CT, RTG core: TT)” the “recombinant barcode read abundance (log10)” value was 0.0341. With “CGGTCCCCTTGGGTTCTAACCTGTTGCCAAG [CGGTCCCCTTG_LTGcore_CT_RTGcore_CT] (site CGGTCCCCTTG) (LTG core: CT, RTG core: CT)” the “recombinant barcode read abundance (log10)” value was 1.32. With “CGGTCCCCTTGGGTTCTAACCTGTTGCCACA [CGGTCCCCTTG_LTGcore_CT_RTGcore_TG] (site CGGTCCCCTTG) (LTG core: CT, RTG core: TG)” the “recombinant barcode read abundance (log10)” value was 0.0539. In the case of “CGGTCCCCTTGGGTTCTAACCTGTTGCCACG [CGGTCCCCTTG_LTGcore_CT_RTGcore_CG] (site CGGTCCCCTTG) (LTG core: CT, RTG core: CG)”, the “recombinant barcode read abundance (log10)” value is reported as 0.0795. With “CGGTCCCCTTGGGTTCTAACCTGTTGCCAGC [CGGTCCCCTTG_LTGcore_CT_RTGcore_GC] (site CGGTCCCCTTG) (LTG core: CT, RTG core: GC)” the “recombinant barcode read abundance (log10)” value was 0.178. In the case of “CGGTCCCCTTGGGTTCTAACCTGTTGCCATA [CGGTCCCCTTG_LTGcore_CT_RTGcore_TA] (site CGGTCCCCTTG) (LTG core: CT, RTG core: TA)”, the “recombinant barcode read abundance (log10)” value is reported as 0.222. For “CGGTCCCCTTGGGTTCTAACCTGTTGCCATC [CGGTCCCCTTG_LTGcore_CT_RTGcore_GA] (site CGGTCCCCTTG) (LTG core: CT, RTG core: GA)”, the “recombinant barcode read abundance (log10)” value was 0.208. In the case of “CGGTCCCCTTGGGTTCTAACCTGTTGCCATT [CGGTCCCCTTG_LTGcore_CT_RTGcore_AA] (site CGGTCCCCTTG) (LTG core: CT, RTG core: AA)”, the “recombinant barcode read abundance (log10)” value is reported as 0.369. With “GAGCCCAACTGGGTTCTAACCTGTTGCCTGT [GAGCCCACTAG_LTGcore_AC_RTGcore_AC] (site GAGCCCACTAG) (LTG core: AC, RTG core: AC)” the “recombinant barcode read abundance (log10)” value was 0.199. With “GAGCCCAATTGGGTTCTAACCTGTTGCCTAT [GAGCCCACTAG_LTGcore_AT_RTGcore_AT] (site GAGCCCACTAG) (LTG core: AT, RTG core: AT)” the “recombinant barcode read abundance (log10)” value was 0.154.
